The results in this text go back to patent publication US12440500B2, “Phytoecdysones and the derivatives thereof for use in the treatment of neuromuscular diseases” (BIOPHYTIS, priority 2019, dated 2025).

Holding throughout (assay type): in vivo, mouse
The test system of assay [1] is AKT. Briefly: Western blot, phosphorylation of AKT in SMA mice. As for the experimental part:
(§1) The frozen muscle Plantaris was homogenized in extraction buffer by mechanical grinding. The supernatant containing the protein extract was sampled, then the protein extracts were then dosed according to the Lowry protein assay. An electrophoresis on SDS-PAGE gel was conducted, then the separated proteins were transferred onto membranes. The primary antibodies used were the following: mouse monoclonal anti-SMN (1:5,000), rabbit polyclonal anti-Ser 473 phospho-AKT (1:1000), rabbit polyclonal anti-AKT ( 1/100), rabbit monoclonal anti phospho-ERK ½ (1:500), anti-MAP Kinase ½ (ERK ½) (1:1000). […] The optical density of each specific band was quantified with image processing software by subtracting the background and by normalizing with the optical density of the β-actin bands. For the controls treated with the vehicle, the values obtained were determined at 1 and the values of the other groups were normalized in relation to these controls and expresses as a relative quantity. […] The quantitative values of pAKT at the Plantaris represent 3 mice per group treated with the vehicle (control or SMA) and 4 mice treated with BIO101. The quantitative values of pERK at the Plantaris represent at least 4 mice per group. The quantitative values of SMN represent n=2. […]

In assay [2] the test system is ERK. Kind of assay: Western blot, phosphorylation of ERK in SMA mice. In general terms: A western blot detects proteins with antibodies after separation by electrophoresis.
For assay [3], the system named is SMN protein. Briefly: Western blot, level of expression of the SMN protein in SMA mice. As for the experimental part:
as §1

The test system of assay [4] is motor neurons of the lumbar spinal cord of SMA mice. Briefly: Motor neuron count, location and soma surface (anti-ChAT immunofluorescence, lumbar spinal cord). As for the experimental part:
A quantitative and qualitative study of the populations of motor neurons on thick cross-sections of the lumbar region of the spinal cord (L1-L5) of healthy control mice or SMA treated with the vehicle or with BIO101 for 11 days was carried out via immunofluorescent labeling with Choline AcetylTransferase (ChAT) such as was described hereinabove (Biondi et al., 2008; Boyer et al., 2013). The analysis was then refined by a study of the different motor neuron sub-populations by characterizing their location in the spinal cord (lateral or medial position), as well as the distribution of the size of their soma.
The anesthetized mice underwent an intracardiac infusion with PBS. The spinal cords of the mice were taken, fixed then rinsed. The lumbar region of the spinal cords (L1-L5) was coated in a 4% solution of agarose. 50 μm cross-sections were made using a vibratome over the entire length of the sample. One section every 5 sections of spinal cord was then used for the immunohistochemical analyses. After a saturation with 0.1M glycine, the tissues were then permeabilized, blocked then marked with a goat polyclonal primary antibody anti-choline acetyltransferase (ChAT) ( 1/400^e). The sections are then washed then incubated with the anti-goat polyclonal secondary antibody coupled with Cyanine 3 (1:400^e). The cores are marked using Bisbenzimide ( 1/1,000^e) then the sections are washed again before being mounted with a photobleaching inhibitor of the fluorescent dyes. The specificity of the marking is verified thanks to a control marking carried out in the absence of the primary antibody.
The images were obtained using a camera mounted on a microscope with a magnification of ×200 and coupled to a central processing unit of the microcomputer type comprising in particular a suitable software for image acquisition. All of the counts were carried out using image processing software.
The quantitative analysis was then refined, on the one hand, by studying the different motor neuron sub-populations by analyzing their location in the spinal cord (lateral or medial position), and on the other hand, by studying the distribution of the surface of their soma.

For assay [5], the system named is neuromuscular junctions of muscles soleus, plantaris and tibialis of SMA mice. Briefly: Morphological study of neuromuscular junction maturation (immunofluorescence).
The test system of assay [6] is SMA mice. Briefly: Grip test (muscular fatigability). The protocol: Phenotypic analyses of type 2 severe SMA mice treated or not starting from P0 with BIO101 were conducted. Longitudinally every two days, a test was conducted of the motor capacities of the mice from P5 to P9. The inventors evaluated the spontaneous displacement capacities by the open-field test, as well as the muscular fatigability by grip test, such as described hereinabove (Biondi et al., 2008; Branchu et al., 2013; Chali et al., 2016).
Indeed, the number of squares that they are able to cross is 10 at P5, 6 at P7 and 8 at P9 versus 17 at P5, 12 at P7 and 24 at P9 in the group of healthy control mice (with p<0.01, p<0.0001 and p<0.001 respectively). […] At P9, this difference is not significant but the treatment with BIO101 tends to have a beneficial effect with mice that are able to cross 11 squares in the group of SMA mice BIO101 in relation to 8 squares in the SMA Vehicle group, p=ns). In order to evaluate muscular fatigability, the gripping force of the hind feet of the mice was tested from P5 to P9 (grip test). The mice are suspended via their hind feet from a thin metal rod suspended in the air, horizontally. The time spent hanging on is recorded. Each mouse was subjected to five successive attempts with a rest period of one minute between two tests. Only the best test was retained for the evaluation of the muscular functions.

Where [7] appears, read: muscle Plantaris, SMA mice treated P0 to P11.
Where [8] appears, read: spinal cord, SMA mice treated daily for 11 days.

With `CC(C)(O)CC[C@@H](O)[C@](C)(O)[C@H]1CC[C@@]2(O)C3=CC(=O)[C@@H]4C[C@@H](O)[C@@H](O)C[C@]4(C)[C@H]3CC[C@]12C` [BIO101, 20-hydroxyecdysone], in assay [1] (setting [7]), the “phosphorylation of AKT (pAKT)” value is recorded as “very substantially increasing”. In addition, the “level of pAKT” value in assay [1] (setting [8]) is “increasing”. Besides, the “level of phosphorylation of ERK (pERK)” value in assay [2] (setting [7]) is “greatly decreased”. The “level of pERK” value in assay [2] (setting [8]) is reported as “decreasing”. Moreover, the “level of expression of SMN” value in assay [3] (setting [7]) is “no modification”. Further, the “level of SMN” value in assay [3] (spinal cord, SMA mice treated for 11 days) is “does not allow for the restoration”. For the same compound, the “loss of motor neurons in relation to healthy control mice” value in assay [4] (11 days of daily treatment (SMA vehicle 25%)) was determined as 13%. Also, in assay [4] (11 days of daily treatment, versus SMA vehicle, p<0.05), the “number of motor neurons per section by semi-ventral spinal cord” value is listed as “significantly higher”. The “effect on the medial motor neurons” value in assay [4] (versus SMA vehicle) is “no significant effect”. Moreover, the “number of lateral motor neurons” value in assay [4] (versus SMA vehicle) is “higher”. The “number of small motor neurons with a soma surface less than 300 μm^2” value in assay [4] (versus SMA vehicle, p<0.05) is “significantly limiting”. Further, the “percentage of neuromuscular junctions of the perforated type” value is 26.5% in assay [5] (Soleus, treated daily from birth to P10, p<0.05 versus vehicle); 45.7% in assay [5] (Tibialis, treated daily from birth to P10, p<0.05 versus vehicle); 16.3% in assay [5] (muscle plantaris, treated daily from birth to P10, p=ns versus vehicle). For the same compound, the “percentage of immature plates” value in assay [5] (all the muscles tested, treated daily from birth to P10) was “decrease”. Further, the “hanging time (grip test)” value is 2.3 s in assay [6] (P5, SMA mice (vehicle 0.2), p<0.05); 12.2 s in assay [6] (P7, SMA mice (vehicle 6.2), p=ns); 20.9 s in assay [6] (P9, SMA mice (vehicle 5.6), p<0.01).
